Results on four compounds are retold here after ChEMBL document CHEMBL3425500, “Perspective: Tyrosine phosphatases as novel targets for antiplatelet therapy” (Bioorg Med Chem, 2015).

Experiment [1] addresses Dual specificity protein phosphatase 3 (Homo sapiens, UniProt P51452). In words: Inhibition of recombinant VHR (unknown origin) using OMFP as substrate after 1 hr by fluorescence assay.
In experiment [2] the target is T1, Receptor-type tyrosine-protein phosphatase R (Homo sapiens, UniProt Q15256).
T1 sequence (Q15256 whole entry): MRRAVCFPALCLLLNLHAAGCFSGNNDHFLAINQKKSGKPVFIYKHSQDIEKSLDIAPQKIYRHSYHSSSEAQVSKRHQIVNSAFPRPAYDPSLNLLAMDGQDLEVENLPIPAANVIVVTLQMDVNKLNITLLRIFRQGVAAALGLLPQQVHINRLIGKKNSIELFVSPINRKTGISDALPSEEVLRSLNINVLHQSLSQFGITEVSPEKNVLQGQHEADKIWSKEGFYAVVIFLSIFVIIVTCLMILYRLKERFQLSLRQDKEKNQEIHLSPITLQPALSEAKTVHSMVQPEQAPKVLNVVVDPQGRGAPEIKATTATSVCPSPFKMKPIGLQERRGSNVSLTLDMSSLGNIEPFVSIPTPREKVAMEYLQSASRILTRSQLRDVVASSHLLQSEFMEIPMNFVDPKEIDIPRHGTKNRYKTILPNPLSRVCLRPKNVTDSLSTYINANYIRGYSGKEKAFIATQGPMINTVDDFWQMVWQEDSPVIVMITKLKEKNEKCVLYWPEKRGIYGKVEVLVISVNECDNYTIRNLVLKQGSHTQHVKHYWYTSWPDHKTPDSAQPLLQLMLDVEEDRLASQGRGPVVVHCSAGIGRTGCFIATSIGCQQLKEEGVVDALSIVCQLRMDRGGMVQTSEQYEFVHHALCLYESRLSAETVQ
In words: Inhibition of recombinant PTP-SL (unknown origin) using OMFP as substrate after 1 hr by fluorescence assay.

The target of experiment [3] is T2, Dual specificity protein phosphatase 22 (Homo sapiens, UniProt Q9NRW4).
T2 sequence (Q9NRW4 whole entry): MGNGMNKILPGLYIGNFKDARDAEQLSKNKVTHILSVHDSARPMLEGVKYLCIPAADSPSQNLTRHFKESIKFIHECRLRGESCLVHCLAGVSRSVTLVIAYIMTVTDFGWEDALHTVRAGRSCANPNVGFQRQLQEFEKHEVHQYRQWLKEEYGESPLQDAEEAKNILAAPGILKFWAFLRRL
Briefly: Inhibition of recombinant VHX (unknown origin) using OMFP as substrate after 1 hr by fluorescence assay.

The target of experiment [4] is T3, Tyrosine-protein phosphatase non-receptor type 7 (Homo sapiens, UniProt P35236).
T3 sequence (P35236 whole entry): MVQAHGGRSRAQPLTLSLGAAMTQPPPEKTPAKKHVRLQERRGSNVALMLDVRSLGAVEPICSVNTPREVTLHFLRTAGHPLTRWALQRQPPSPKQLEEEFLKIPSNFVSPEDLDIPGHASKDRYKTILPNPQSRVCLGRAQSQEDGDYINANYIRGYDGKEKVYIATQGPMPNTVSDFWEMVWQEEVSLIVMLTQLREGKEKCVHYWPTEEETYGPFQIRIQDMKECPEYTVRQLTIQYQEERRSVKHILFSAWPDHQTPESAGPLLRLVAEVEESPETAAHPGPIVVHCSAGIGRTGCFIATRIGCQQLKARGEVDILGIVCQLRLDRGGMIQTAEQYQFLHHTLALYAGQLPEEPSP
Briefly: Inhibition of recombinant HePTP (unknown origin) using OMFP as substrate after 1 hr by fluorescence assay.

For experiment [5], the target named is T4, Tyrosine-protein phosphatase non-receptor type 22 (Homo sapiens, UniProt Q9Y2R2).
T4 sequence (Q9Y2R2 whole entry): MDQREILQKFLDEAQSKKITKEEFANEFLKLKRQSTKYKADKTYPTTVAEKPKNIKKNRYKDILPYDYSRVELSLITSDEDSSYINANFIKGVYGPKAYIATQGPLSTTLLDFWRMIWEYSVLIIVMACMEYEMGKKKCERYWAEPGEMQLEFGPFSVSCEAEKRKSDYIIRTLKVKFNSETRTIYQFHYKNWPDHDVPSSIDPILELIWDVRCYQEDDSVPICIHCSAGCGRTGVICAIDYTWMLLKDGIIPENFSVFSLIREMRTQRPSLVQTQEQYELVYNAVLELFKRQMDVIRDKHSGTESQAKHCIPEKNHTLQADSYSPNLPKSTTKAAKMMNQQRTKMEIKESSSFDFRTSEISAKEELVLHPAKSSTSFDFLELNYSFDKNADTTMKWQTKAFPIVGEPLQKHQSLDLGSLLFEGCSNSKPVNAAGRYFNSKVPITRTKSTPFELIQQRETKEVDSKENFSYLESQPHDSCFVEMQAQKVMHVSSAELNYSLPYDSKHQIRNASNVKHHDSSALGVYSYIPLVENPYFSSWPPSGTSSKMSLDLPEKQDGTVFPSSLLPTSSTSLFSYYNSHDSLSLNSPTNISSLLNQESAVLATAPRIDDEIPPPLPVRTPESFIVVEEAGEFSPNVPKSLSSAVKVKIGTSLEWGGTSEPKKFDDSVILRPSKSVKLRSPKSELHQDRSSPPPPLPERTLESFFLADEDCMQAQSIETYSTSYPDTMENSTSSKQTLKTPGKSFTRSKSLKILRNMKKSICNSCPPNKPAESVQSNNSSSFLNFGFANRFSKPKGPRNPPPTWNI
Briefly: Inhibition of recombinant LYP (unknown origin) using OMFP as substrate after 1 hr by fluorescence assay.

The target of experiment [6] is T5, Tyrosine-protein phosphatase non-receptor type 2 (Homo sapiens, UniProt P17706).
T5 sequence (P17706 whole entry): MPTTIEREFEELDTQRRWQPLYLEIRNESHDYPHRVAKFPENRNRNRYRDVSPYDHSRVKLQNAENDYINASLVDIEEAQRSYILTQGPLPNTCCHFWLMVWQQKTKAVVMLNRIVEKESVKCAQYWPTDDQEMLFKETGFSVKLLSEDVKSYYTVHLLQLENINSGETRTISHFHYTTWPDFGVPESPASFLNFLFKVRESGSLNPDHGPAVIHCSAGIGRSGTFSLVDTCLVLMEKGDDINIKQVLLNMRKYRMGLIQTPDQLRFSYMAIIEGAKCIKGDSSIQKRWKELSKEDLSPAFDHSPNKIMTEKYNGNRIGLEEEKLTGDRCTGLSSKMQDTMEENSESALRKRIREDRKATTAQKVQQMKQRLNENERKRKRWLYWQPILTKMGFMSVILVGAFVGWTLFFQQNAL
In words: Inhibition of recombinant TCPTP (unknown origin) using OMFP as substrate after 1 hr by fluorescence assay.

Experiment [7] addresses T6, Receptor-type tyrosine-protein phosphatase C (Homo sapiens, UniProt P08575).
T6 sequence (P08575 whole entry): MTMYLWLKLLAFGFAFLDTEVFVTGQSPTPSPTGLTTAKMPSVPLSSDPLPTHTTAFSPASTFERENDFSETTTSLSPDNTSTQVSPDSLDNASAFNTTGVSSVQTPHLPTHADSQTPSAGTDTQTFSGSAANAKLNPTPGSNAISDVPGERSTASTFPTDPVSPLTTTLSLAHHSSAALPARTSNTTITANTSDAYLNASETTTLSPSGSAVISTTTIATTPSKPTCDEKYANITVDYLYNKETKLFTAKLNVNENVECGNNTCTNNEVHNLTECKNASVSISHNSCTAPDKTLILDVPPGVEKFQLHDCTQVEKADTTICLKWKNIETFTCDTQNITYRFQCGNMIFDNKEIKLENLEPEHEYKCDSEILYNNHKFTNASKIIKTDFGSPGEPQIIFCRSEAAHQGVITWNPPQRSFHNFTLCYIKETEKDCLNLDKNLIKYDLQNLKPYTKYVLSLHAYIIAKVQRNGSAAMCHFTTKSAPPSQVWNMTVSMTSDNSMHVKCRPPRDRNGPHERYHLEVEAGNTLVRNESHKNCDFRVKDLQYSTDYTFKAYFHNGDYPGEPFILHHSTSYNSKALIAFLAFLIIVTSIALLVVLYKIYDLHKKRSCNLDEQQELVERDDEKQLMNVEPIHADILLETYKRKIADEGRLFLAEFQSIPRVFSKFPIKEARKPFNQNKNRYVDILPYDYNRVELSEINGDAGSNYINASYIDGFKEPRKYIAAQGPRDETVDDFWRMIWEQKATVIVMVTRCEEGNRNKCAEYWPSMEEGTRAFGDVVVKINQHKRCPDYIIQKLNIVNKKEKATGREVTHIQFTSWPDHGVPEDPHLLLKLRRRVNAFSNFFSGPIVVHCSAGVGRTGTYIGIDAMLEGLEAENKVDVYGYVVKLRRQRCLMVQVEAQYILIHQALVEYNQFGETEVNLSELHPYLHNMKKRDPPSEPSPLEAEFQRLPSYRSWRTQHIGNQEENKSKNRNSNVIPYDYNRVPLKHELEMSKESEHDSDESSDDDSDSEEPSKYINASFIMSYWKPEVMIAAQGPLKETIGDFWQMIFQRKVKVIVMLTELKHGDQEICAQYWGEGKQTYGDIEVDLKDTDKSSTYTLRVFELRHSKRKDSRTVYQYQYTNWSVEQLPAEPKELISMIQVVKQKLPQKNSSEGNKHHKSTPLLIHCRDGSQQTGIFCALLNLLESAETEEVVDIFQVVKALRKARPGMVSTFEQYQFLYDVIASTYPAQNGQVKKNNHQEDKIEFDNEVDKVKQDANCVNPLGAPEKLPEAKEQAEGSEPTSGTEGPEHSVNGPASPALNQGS
Briefly: Inhibition of recombinant CD45 (unknown origin) using OMFP as substrate after 1 hr by fluorescence assay.

Experiment [8] concerns the target Receptor-type tyrosine-protein phosphatase F (Homo sapiens, UniProt P10586). Briefly: Inhibition of recombinant LAR (unknown origin) using OMFP as substrate after 1 hr by fluorescence assay.
Experiment [9] deals with T7, Tyrosine-protein phosphatase non-receptor type 5 (Homo sapiens, UniProt P54829).
T7 sequence (P54829 whole entry): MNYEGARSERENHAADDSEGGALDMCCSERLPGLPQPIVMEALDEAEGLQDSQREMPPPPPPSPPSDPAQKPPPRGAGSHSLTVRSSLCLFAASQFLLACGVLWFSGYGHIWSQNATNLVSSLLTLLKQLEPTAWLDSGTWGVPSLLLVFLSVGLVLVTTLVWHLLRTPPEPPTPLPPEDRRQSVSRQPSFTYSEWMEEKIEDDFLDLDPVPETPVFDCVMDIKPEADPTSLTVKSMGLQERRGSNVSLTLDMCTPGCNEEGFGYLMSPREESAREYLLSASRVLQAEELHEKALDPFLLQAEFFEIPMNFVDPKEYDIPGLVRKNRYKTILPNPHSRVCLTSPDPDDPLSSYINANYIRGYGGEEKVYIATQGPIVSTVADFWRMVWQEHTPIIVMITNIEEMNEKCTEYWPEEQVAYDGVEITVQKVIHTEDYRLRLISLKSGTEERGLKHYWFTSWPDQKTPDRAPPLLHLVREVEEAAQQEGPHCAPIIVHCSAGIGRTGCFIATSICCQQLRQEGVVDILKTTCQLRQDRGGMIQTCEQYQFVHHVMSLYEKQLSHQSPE
In words: Inhibition of recombinant STEP (unknown origin) using OMFP as substrate after 1 hr by fluorescence assay.

Experiment [10] has as its target T8, Tyrosine-protein phosphatase non-receptor type 1 (Homo sapiens, UniProt P18031).
T8 sequence (P18031 whole entry): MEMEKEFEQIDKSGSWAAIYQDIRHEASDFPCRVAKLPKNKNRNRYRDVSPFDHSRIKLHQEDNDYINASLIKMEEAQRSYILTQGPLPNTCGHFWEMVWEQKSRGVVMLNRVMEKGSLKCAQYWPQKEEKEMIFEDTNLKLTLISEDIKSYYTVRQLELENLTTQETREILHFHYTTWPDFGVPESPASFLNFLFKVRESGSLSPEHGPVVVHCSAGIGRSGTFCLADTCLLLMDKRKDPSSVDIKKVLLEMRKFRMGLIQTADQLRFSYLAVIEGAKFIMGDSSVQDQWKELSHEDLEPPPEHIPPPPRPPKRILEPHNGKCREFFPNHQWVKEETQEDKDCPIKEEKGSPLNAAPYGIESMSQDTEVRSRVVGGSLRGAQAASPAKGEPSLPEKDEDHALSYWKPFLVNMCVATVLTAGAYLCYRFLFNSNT
Briefly: Inhibition of recombinant PTP1B (unknown origin) using OMFP as substrate after 1 hr by fluorescence assay.

For experiment [11], the target named is T9, Dual specificity protein phosphatase 6 (Homo sapiens, UniProt Q16828).
T9 sequence (Q16828 whole entry): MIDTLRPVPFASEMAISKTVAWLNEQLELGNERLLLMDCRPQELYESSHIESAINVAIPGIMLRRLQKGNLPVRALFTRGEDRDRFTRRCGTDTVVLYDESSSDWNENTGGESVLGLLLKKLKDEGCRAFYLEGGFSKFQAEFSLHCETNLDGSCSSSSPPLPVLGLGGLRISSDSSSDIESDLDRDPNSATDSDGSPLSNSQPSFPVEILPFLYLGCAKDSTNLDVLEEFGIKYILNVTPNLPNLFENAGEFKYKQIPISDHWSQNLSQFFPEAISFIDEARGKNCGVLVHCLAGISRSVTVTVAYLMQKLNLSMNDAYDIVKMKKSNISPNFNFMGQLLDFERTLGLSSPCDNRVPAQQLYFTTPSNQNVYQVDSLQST
In words: Inhibition of recombinant MKP3 (unknown origin) using OMFP as substrate after 1 hr by fluorescence assay.

Experiment [12] addresses T8, Tyrosine-protein phosphatase non-receptor type 1. In words: Competitive inhibition of PTP1B (unknown origin).
Experiment [13] has the same target. Briefly: Inhibition of recombinant human PTP1B assessed as hydrolysis of DiFMUP preincubated for 10 mins followed by DiFMUP addition measured after 5 mins by fluorescence assay.

The structures appear in SMILES notation. Some results are limits rather than exact numbers.

Chain of Receptor-type tyrosine-protein phosphatase F (P10586 whole entry): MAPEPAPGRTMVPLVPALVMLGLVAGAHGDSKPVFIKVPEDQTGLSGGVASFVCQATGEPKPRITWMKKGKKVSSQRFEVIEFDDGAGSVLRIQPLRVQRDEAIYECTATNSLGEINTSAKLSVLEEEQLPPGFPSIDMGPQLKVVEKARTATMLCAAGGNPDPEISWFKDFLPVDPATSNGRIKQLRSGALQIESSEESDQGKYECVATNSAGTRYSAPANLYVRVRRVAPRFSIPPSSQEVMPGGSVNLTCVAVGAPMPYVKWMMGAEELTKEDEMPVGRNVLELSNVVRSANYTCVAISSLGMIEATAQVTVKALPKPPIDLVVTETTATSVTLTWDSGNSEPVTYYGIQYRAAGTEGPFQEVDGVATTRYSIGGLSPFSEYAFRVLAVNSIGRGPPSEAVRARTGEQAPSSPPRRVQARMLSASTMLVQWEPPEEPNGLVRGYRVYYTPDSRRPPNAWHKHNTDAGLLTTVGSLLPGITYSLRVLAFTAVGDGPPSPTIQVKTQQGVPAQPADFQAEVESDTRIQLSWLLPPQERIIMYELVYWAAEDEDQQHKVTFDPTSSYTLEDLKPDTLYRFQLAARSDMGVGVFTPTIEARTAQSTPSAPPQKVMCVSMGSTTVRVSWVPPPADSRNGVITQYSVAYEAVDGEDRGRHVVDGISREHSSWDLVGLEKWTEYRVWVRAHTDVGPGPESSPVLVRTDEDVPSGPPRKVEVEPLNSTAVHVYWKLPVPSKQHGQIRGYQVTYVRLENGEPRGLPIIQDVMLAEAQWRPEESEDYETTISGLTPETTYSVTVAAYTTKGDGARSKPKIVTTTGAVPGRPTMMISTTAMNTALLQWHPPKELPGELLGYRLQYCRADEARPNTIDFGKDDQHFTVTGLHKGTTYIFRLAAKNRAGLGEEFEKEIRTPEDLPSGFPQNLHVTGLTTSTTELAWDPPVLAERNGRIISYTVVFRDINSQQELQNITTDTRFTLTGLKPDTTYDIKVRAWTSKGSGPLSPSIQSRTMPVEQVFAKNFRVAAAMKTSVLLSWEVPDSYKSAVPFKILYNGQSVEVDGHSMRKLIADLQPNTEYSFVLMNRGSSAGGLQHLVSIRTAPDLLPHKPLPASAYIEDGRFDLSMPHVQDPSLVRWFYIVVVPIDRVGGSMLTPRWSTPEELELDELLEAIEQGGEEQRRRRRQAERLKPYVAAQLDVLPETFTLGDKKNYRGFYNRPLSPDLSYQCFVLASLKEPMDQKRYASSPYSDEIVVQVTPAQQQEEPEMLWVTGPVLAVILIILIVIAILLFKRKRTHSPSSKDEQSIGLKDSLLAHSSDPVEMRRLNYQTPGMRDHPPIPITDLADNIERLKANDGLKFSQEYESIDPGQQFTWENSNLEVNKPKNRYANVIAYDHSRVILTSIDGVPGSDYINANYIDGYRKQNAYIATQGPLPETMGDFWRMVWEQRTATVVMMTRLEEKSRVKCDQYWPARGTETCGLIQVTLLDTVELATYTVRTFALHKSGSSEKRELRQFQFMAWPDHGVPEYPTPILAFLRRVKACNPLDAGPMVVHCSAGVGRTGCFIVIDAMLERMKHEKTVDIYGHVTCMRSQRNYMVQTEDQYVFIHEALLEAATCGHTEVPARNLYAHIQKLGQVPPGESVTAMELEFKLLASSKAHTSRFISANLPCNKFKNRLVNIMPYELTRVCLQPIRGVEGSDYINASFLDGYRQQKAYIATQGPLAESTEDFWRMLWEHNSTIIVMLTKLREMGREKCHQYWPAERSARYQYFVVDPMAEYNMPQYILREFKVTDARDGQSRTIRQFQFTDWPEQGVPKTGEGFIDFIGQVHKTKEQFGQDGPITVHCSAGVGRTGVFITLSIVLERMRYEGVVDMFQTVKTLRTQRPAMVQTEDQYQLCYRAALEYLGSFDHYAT
Chain of Dual specificity protein phosphatase 3 (P51452 whole entry): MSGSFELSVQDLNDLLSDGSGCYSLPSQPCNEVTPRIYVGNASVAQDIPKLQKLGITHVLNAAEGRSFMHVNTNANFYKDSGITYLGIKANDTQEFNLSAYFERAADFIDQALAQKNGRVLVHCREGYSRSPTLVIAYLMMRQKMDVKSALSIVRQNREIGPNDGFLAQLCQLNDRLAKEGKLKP

As for `COc1ccc(-c2nnc(Nc3nc4c(OC)cccc4s3)o2)cc1`, the IC50 (usually the point on the concentration scale where inhibition reaches its midpoint) in [1] stood at 2.68 µM.
In the case of `COc1ccc(-c2nnc(Nc3nc4c(F)cccc4s3)o2)cc1`, the IC50 was 13 µM in [2]; 26 µM in [3]; 38 µM in experiment [4]; 49 µM in experiment [5]; 55 µM in experiment [6]; more than 100 µM in experiment [7]. Further, the IC50 in [8], in [9], in [10] and in experiment [11] was more than 100 µM each time.
As to `CCCCCCCCCCCCCCC(=O)N[C@@H](Cc1ccc(C(F)(F)P(=O)(O)O)cc1)C(=O)N[C@@H](CC(=O)O)C(=O)N[C@@H](Cc1ccc(C(F)(F)P(=O)(O)O)cc1)C(N)=O`, in experiment [12], the Ki (usually the equilibrium dissociation constant of an inhibitor or competing ligand from its target) is 0.026 µM.
Consider `CN1C(=O)/C(=C\c2ccc(OCc3ccc(C4CCCCC4)cc3)cc2)S/C1=N/c1ccc(CC(=O)O)cc1`, for which the IC50 in [13] was determined as 0.24 µM.
